Laboratory results from patent US5578592A, “Cephalosporin derivatives” (Pfizer Inc., priority 1992, dated 1996).

Columns and labels:
Type in all cases: cell-based
S. epidermis PHLN20 = test: In vitro antibacterial activity (MIC), S. epidermis PHLN20
S. aureus Oxford = test: In vitro antibacterial activity (MIC), S. aureus Oxford; conditions: Staphylococcus aureus
H. Influenzae Q1 = test: In vitro antibacterial activity (MIC), H. Influenzae Q1; conditions: Haemophilus influenzae
H. influenzae W/M 493 = test: In vitro antibacterial activity (MIC), H. influenzae W/M 493; conditions: Haemophilus influenzae
S. aureus Russell = test: In vitro antibacterial activity (MIC), S. aureus Russell; conditions: Staphylococcus aureus
E. Coli 10418 = test: In vitro antibacterial activity (MIC), E. Coli 10418; conditions: Escherichia coli

`CO/N=C(\C(=O)N[C@@H]1C(=O)N2C(C(=O)O)=C3[C@H]4Oc5ccccc5[C@H]4[C@@H]3S[C@H]12)c1csc(N)n1` [Example 14, Sodium (4S,8R,9S,11R,12R)-12-[2-(2-aminothiazol-4-yl)-2-(Z)-methoxy-iminoacetamido]-13-oxo-5-oxa-10-thia-1-aza-6,7-benzotetracyclo[9.2.0.0^3,9.0^4,8]tridec-2-ene-carboxylate] showed an MIC (S. epidermis PHLN20) of 0.25 µg/mL, an MIC (S. aureus Oxford) of 0.5 µg/mL and an MIC (H. Influenzae Q1) of less than 0.06 µg/mL. The MIC (H. influenzae W/M 493) was 0.5 µg/mL, the MIC (S. aureus Russell) was 1 µg/mL and the MIC (E. Coli 10418) was 0.12 µg/mL.
